# From patent US20030119800A1, “Bone anabolic compounds and methods of use” (priority 2001, published 2003)
# Key:
# [1] = system: ER (lamb uterus cytosol, human ERα, human ERβ); experiment: Relative binding affinity by competition with 3H E2 (FIG. 10)
# Protocol: The proteins were absorbed to hydroxylapatite (HAP) and the free ligand removed by washing (Carlson et al, 1997). Results are expressed as percent specific binding. […] Symbols indicate means±SD of two separate experiments in which each point was determined in duplicate.
# Statistical analysis: ANOVA was used to detect treatment effects. Specifically, in FIGS. 1-6 & 8, Dunnett's test (Kuehl et al, 2000) was used to detect differences between various treatments as compared to the vehicle control group. To detect differences in the efficacy of the various compounds shown in FIGS. 7A & B, the dose response curves were compared using tests for linear trend (Kuehl, 2002). Bonferroni's method was used to perform all pairwise comparisons of treatment groups in FIGS. 7E & F, FIGS. 11A, B, C, FIG. 12A, FIG. 13, FIGS. 14A and B and FIG. 9. Because the normality assumption was not satisfied for the data in FIGS. 3C & D and FIG. 12C, Wilcoxon's rank sum test (Steel et al, 1997) was used to perform all pairwise comparisons of treatment groups using a Bonferroni correction. In FIG. 14D, a two-way ANOVA was used to detect treatment and dose effects and tests for linear trend were subsequently employed to determine significant effects of each compound. In FIG. 10, logistic regression was used to estimate EC50, which was then used to determine the relative binding affinity. […]
# ERα = molecular target: T1, ERα (Homo sapiens, UniProt P03372); experiment: SRE-SEAP and AP-1-SEAP reporter assays in HeLa cells transfected with ERα; format: cell-based; details: steroids 10^−8 M for 15 minutes (E2 as little as five minutes), SEAP six hours later
# T1 construct: HeLa cells transfected with the full length ERα; expressed in transfected cells; host or cells: HeLa
# T1 sequence (P03372 whole entry): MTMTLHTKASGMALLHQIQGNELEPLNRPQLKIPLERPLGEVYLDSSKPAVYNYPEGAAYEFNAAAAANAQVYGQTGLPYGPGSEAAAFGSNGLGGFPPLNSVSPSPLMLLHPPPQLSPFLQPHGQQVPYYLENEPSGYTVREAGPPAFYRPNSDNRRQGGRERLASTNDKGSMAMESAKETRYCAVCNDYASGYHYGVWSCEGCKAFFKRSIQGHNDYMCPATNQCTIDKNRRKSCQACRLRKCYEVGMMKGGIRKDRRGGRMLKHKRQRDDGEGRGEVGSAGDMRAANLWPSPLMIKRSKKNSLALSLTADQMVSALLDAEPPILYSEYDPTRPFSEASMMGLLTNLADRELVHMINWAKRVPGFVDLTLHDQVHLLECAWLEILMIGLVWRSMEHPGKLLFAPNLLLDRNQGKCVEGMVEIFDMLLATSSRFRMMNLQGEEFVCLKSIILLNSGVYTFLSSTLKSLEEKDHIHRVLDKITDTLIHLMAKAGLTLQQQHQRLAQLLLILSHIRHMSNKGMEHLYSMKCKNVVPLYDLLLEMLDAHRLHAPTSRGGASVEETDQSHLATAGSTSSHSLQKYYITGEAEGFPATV
# Protocol: HeLa cells were co-transfected with reporter constructs in which SRE or AP-1 drive the expression of secreted alkaline phosphatase (SEAP), along with the wild type ERα (A and B); or its ligand binding domain (E), or E fused to a membrane (E-Mem) or nuclear (E-Nuc) localization sequence (A). A dominant negaitve (dn) MEK or dn Jnk were also introduced into a subset of the ERα transfected cells. Cells were exposed to vehicle or the indicated steroids (10^−8M) for 15 minutes. The steroid containing media were then removed, the cells were washed twice, and the cultures were continued in fresh medium without steroids. Supernatants were collected six hours later and SEAP activity was assayed. In FIGS. 1A and 1B, 100% indicates activity in vehicle treated cells. (C) HeLa cells were co-transfected with the ERα and nEGFP and wild type or dn mutants of the indicated transcription factors. […] (D) HeLa cells (upper panel) were transiently co-transfected with the ERα, a nonphosphorylatable dn mutant of Bad. […] Cells were then treated as in (C).
# Transient transfections and reporter assays: HeLa cells were transfected using Lipofectamine Plus (Life Technologies Inc.). For reporter assays (luciferase or secreated alkaline phosphatase SEAP), serum-starved cells were treated with the indicated steroids for 15 min after which the steroid-containing media were removed, cells washed twice with 1% BSA in PBS, and fresh media without steroid were added. SEAP or luciferase assays were performed 6 h later using the Great EscAPe SEAP Chemiluminescence Kit (Clontech, Palo Alto, Calif.) or the dual luciferase Kit (Promega, Madison, Wis.), respectively, according to the manufacturer's instructions. Both reporter activities were normalized to renilla luciferase activity.
# MCF-7 cells = experiment: MCF-7 cell proliferation assay (3H-thymidine uptake); format: cell-based; details: 10^−12-10^−7 M for 48 h
# Excerpt: Wet uterine (A) or seminal vesicle weight (B) of female and male mice described in FIG. 11. […] Note the following morphologic differences in the uteri of OVX- and OVX+4-estren-3α,17β-diol-treated mice as compared to uteri from sham-operated and OVX+E2-treated mice: thin and atrophic columnar epithelium; compact stroma; decreased number of glands; decreased nucleus to cytoplasmic ratio in the columnar epithelial, endometrial stroma, and myometrial cells; and absence of mitotic activity. (D) Proliferation of MCF-7 cells was determined by ^3H-thymidine uptake.
# MCF-7 cell proliferation assay: MCF-7 cells were serum-starved in the presence of 10^−8 M ICI 182,780 for 96 h, after which the ICI-containing medium was replaced with medium-containing vehicle or 10^−12-10^−7 M of the indicated steroids for an additional 48 h. At that time, proliferation was assayed by measuring ^3H-Thymidine uptake as previously described (Bellido et al, 1997).
compound,measurement,setting,value
"C[C@]12CC[C@H]3[C@@H](CCC4=C[C@H](O)CC[C@@H]43)[C@@H]1CC[C@@H]2O [4-estren-3α,17β-diol]",binding affinity for the ER compared to E2,[1],lower binding affinity
same,AP-1-dependent transcriptional activity (AP-1-SEAP),ERα,downregulation of AP-1
same,SRE-dependent transcriptional activity (SRE-SEAP),ERα,Stimulation of SRE
same,MCF-7 cell proliferation,MCF-7 cells,did not stimulate
